The values below come from article PMC6510361 (Medicine and Pharmacy Reports, 2019).

Data set [1] has as its system rat pooled liver microsomes.
Data set [2] concerns CYP2C9. Particulars: cited from earlier work.
Data set [3] relates to CYP2D6. Particulars: sertraline, fluvoxamine: ref 17; bupropion in vitro ref 12, in vivo ref 13; cited from earlier work.
Data set [4] has as its system CYP1A2. The note with it: cited from earlier work.
The conditions of data set [5]: cited from earlier work.

On to `CN[C@H]1CC[C@@H](c2ccc(Cl)c(Cl)c2)c2ccccc21` [Sertraline, sertraline], for which, in data set [1], the “decrease of carvedilol metabolisation rate” value amounted to 63.63%. Besides, the CYP2C9 inhibition entry in data set [2] was “weak inhibitor”. Also, in data set [3], the CYP2D6 inhibition result is listed as “moderate inhibitor”. In addition, the CYP1A2 inhibition result in data set [4] is given as “weak inhibitor”.
As to `CC(NC(C)(C)C)C(=O)c1cccc(Cl)c1` (centres unmarked) [Bupropion, bupropion], the CYP2D6 inhibition entry in data set [3] is “inhibits”.
`COCCCC/C(=N\OCCN)c1ccc(C(F)(F)F)cc1` [Fluvoxamine, fluvoxamine]: the “decrease of carvedilol metabolisation rate” value in data set [1] amounted to 25.19%. For the same molecule, in data set [1] (based on metabolization rate and AUC0–30, citalopram data ref 20), the “inhibitory potency compared with citalopram” value is given as “stronger inhibitors than citalopram”. Also, the CYP2C9 inhibition result in data set [2] was “moderate inhibitor”. In data set [3], the CYP2D6 inhibition result is listed as “weak inhibitor”. Besides, in data set [4], the CYP1A2 inhibition result is “strong inhibitor”.
In the case of `COc1cc(O)ccc1OCCNCC(O)COc1cccc2[nH]c3ccccc3c12` (centres unmarked) [4′-hydroxyphenyl carvedilol], in data set [5], the “beta-blocking potency relative to carvedilol” value is “approximately 13 times”.
